Converted amounts (≈) assume the structure as drawn.
Key:
[1] = tested on: Escherichia coli ATCC 25922 (DRCC 018, S); assay: MIC by broth microdilution, E coli DRCC 018 (S); assay type: cell-based; conditions: ATCC25922, Mueller Hinton Broth, overnight 37° C., strain DRCC 018 (ATCC 25922), read-out: Antimicrobial Screening (MIC) E coli 18 S
Procedure: (§1) Minimum Inhibiton Concentrations (MICs) were determined by broth microdilution technique as per the guidelines prescribed om the fifth edition of Approved Standards, NCCLS document M7-A5 Vol 20-No 2, 2000 Villinova, Pa.
(§2) Initial stock solution of the test compound was prepared in DMSO. Subsequent two fold dilutions were carried out in sterile Mueller Hinton Broth (Difco) (MHB).
(§3) Frozen cultures stocks were inoculated into 50 ml sterile MHB in 250 ml Erlyn Meyer flasks.
(§4) Composition of MHB is as follows:
(§5) Flasks were incubated for 4 to 5 h at 35° C. on a rotary shaker at 150 rpm. Inoculum was prepared by diluting the culture in sterile MHB to obtain a turbidity of 0.5 McFarland standard. This corresponds to 1–2×10^8 CFU/ml. The stock was further diluted in sterile broth to obtain 1–2×10^6 CFU/ml. 50 μl of the above diluted inoculum was added from 1–10 wells. The plates were incubated overnight at 37° C.

[2] = tested on: Enterococcus faecalis NCTC 12201 (DRCC 153, R); assay: MIC by broth microdilution, Enterococcus DRCC 153 (R); assay type: cell-based; conditions: NCTC12201, Mueller Hinton Broth, overnight 37° C., strain DRCC 153 (E. faecalis NCTC 12201), read-out: Antimicrobial Screening (MIC) Enterococcus sp 153 R
Procedure: as §1, §2, §3, §4, §5

[3] = tested on: Enterococcus faecalis ATCC 29212 (DRCC 034, S); assay: MIC by broth microdilution, Enterococcus DRCC 034 (S); assay type: cell-based; conditions: ATCC29212, Mueller Hinton Broth, overnight 37° C., strain DRCC 034 (E. faecalis ATCC 29212), read-out: Antimicrobial Screening (MIC) Enterococcus sp 034 S
Procedure: as §1, §2, §3, §4, §5

[4] = tested on: Staphylococcus aureus ATCC 49951 (DRCC 213, Smith S); assay: MIC by broth microdilution, S. aureus DRCC 213 (Smith S); assay type: cell-based; conditions: ATCC49951, Mueller Hinton Broth, overnight 37° C., strain DRCC 213 (ATCC 49951), read-out: Antimicrobial Screening (MIC) Staphylococcus aureus 213 Smith S
Procedure: as §1, §2, §3, §4, §5

[5] = tested on: Enterococcus faecium NCTC 12202 (DRCC 154, R); assay: MIC by broth microdilution, Enterococcus DRCC 154 (R); assay type: cell-based; conditions: NCTC12202, Mueller Hinton Broth, overnight 37° C., strain DRCC 154 (E. faecium NCTC 12202), read-out: Antimicrobial Screening (MIC) Enterococcus sp 154 R
Procedure: as §1, §2, §3, §4, §5

[6] = tested on: Staphylococcus aureus ATCC 29213 (DRCC 035, S); assay: MIC by broth microdilution, S. aureus DRCC 035 (S); assay type: cell-based; conditions: ATCC29213, Mueller Hinton Broth, overnight 37° C., strain DRCC 035 (ATCC 29213), read-out: Antimicrobial Screening (MIC) Staphylococcus aureus 035 S
Procedure: as §1, §2, §3, §4, §5

[7] = tested on: Staphylococcus aureus ATCC 33591 (DRCC 019, MRSA); assay: MIC by broth microdilution, S. aureus DRCC 019 (MRSA); assay type: cell-based; conditions: Mueller Hinton Broth, overnight 37° C., strain DRCC 019 (ATCC 33591), read-out: Antimicrobial Screening (MIC) Staphylococcus aureus 019 MRSA
Procedure: as §1, §2, §3, §4, §5

Work on `CC(=O)NC[C@H]1CN(c2ccc(N3CCOC3=O)c(F)c2)C(=O)O1` [Example 40] yielded an MIC [1] of 32 µg/mL (≈ 94.9 µM), an MIC [2] of 8 µg/mL (≈ 23.7 µM) and an MIC [3] of 16 µg/mL (≈ 47.4 µM). It also gave an MIC [4] of 4 µg/mL (≈ 11.9 µM), an MIC [5] of 8 µg/mL (≈ 23.7 µM) and an MIC [6] of 8 µg/mL (≈ 23.7 µM). The MIC [7] was 8 µg/mL (≈ 23.7 µM).

`CC(=O)NC[C@H]1CN(c2ccc(N3CCOC3=O)cc2)C(=O)O1` [Example 62] showed an MIC [1] of 32 µg/mL (≈ 100 µM), an MIC [2] of 8 µg/mL (≈ 25.1 µM) and an MIC [4] of 1 µg/mL (≈ 3.13 µM). It also gave an MIC [5] of 8 µg/mL (≈ 25.1 µM), an MIC [6] of 4 µg/mL (≈ 12.5 µM) and an MIC [7] of 2 µg/mL (≈ 6.26 µM).

With `CC(=S)NC[C@H]1CN(c2cc(F)c(N3CCOC3=O)c(F)c2)C(=O)O1` [Example 76] the MIC [1] was over 32 µg/mL, the MIC [2] was 4 µg/mL (≈ 10.8 µM) and the MIC [3] was 4 µg/mL (≈ 10.8 µM). The MIC [4] was 2 µg/mL (≈ 5.39 µM), the MIC [5] was 4 µg/mL (≈ 10.8 µM) and the MIC [6] was 4 µg/mL (≈ 10.8 µM). The MIC [7] was 2 µg/mL (≈ 5.39 µM).

In the case of `CC(=S)NC[C@H]1CN(c2cc(F)c(N3CCOC3=O)c(F)c2)C(=O)O1` [Example 77], the melting point is reported as 168 °C.

Compound `CC(=S)NC[C@H]1CN(c2ccc(N3CCN(C)C3=O)c(F)c2)C(=O)O1` [Example 79] has an MIC [1] of 32 µg/mL (≈ 87.3 µM), an MIC [2] of 8 µg/mL (≈ 21.8 µM) and an MIC [3] of 4 µg/mL (≈ 10.9 µM). For the same compound, the MIC [4] was 2 µg/mL (≈ 5.46 µM), the MIC [5] was 8 µg/mL (≈ 21.8 µM) and the MIC [6] was 4 µg/mL (≈ 10.9 µM). The MIC [7] was 2 µg/mL (≈ 5.46 µM).

Compound `COC(=S)NC[C@H]1CN(c2ccc(N3CCOC3=O)c(F)c2)C(=O)O1` [Example 88] has an MIC [1] of over 32 µg/mL, an MIC [2] of 2 µg/mL (≈ 5.41 µM) and an MIC [3] of 2 µg/mL (≈ 5.41 µM). It also gave an MIC [4] of 1 µg/mL (≈ 2.71 µM), an MIC [5] of 2 µg/mL (≈ 5.41 µM) and an MIC [6] of 2 µg/mL (≈ 5.41 µM). For the same compound, the MIC [7] was 1 µg/mL (≈ 2.71 µM).

Compound `CCOC(=S)NC[C@H]1CN(c2ccc(N3CCOC3=O)c(F)c2)C(=O)O1` [Example 89] has an MIC [1] of over 32 µg/mL, an MIC [2] of 8 µg/mL (≈ 20.9 µM) and an MIC [3] of 8 µg/mL (≈ 20.9 µM). It also gave an MIC [4] of 4 µg/mL (≈ 10.4 µM), an MIC [5] of 8 µg/mL (≈ 20.9 µM) and an MIC [6] of 4 µg/mL (≈ 10.4 µM). The MIC [7] was 4 µg/mL (≈ 10.4 µM).

Work on `COC(=S)NC[C@H]1CN(c2ccc(N3CCOC3=S)c(F)c2)C(=O)O1` [Example 92] yielded a melting point of 197 °C.

Compound `COC(=S)NC[C@H]1CN(c2cc(F)c(N3CCOC3=O)c(F)c2)C(=O)O1` [Example 99] has an MIC [1] of over 32 µg/mL, an MIC [2] of 2 µg/mL (≈ 5.16 µM) and an MIC [3] of 2 µg/mL (≈ 5.16 µM). The MIC [4] was 2 µg/mL (≈ 5.16 µM), the MIC [5] was 2 µg/mL (≈ 5.16 µM) and the MIC [6] was 2 µg/mL (≈ 5.16 µM). For the same compound, the MIC [7] was 2 µg/mL (≈ 5.16 µM).

`COC(=S)NC[C@H]1CN(c2ccc(N3CCOC3=O)cc2)C(=O)O1` [Example 100] showed an MIC [1] of 32 µg/mL (≈ 91.1 µM), an MIC [2] of 1 µg/mL (≈ 2.85 µM) and an MIC [3] of 1 µg/mL (≈ 2.85 µM). For the same compound, the MIC [4] was 0.5 µg/mL (≈ 1.42 µM), the MIC [5] was 1 µg/mL (≈ 2.85 µM) and the MIC [6] was 0.5 µg/mL (≈ 1.42 µM). It also gave an MIC [7] of 0.5 µg/mL (≈ 1.42 µM).

`CC(C)OC(=S)NC[C@H]1CN(c2ccc(N3CCOC3=O)cc2)C(=O)O1` [Example 107] showed an MIC [1] of 32 µg/mL (≈ 84.3 µM), an MIC [2] of 4 µg/mL (≈ 10.5 µM) and an MIC [3] of 8 µg/mL (≈ 21.1 µM). The MIC [4] was 4 µg/mL (≈ 10.5 µM), the MIC [5] was 4 µg/mL (≈ 10.5 µM) and the MIC [6] was 4 µg/mL (≈ 10.5 µM). The MIC [7] was 2 µg/mL (≈ 5.27 µM).

With `COC(=S)NC[C@H]1CN(c2ccc(N3CC(=O)N(C)C3)c(F)c2)C(=O)O1` [Example 110] the MIC [1] was 32 µg/mL (≈ 83.7 µM), the MIC [2] was 1 µg/mL (≈ 2.61 µM) and the MIC [3] was 1 µg/mL (≈ 2.61 µM). The MIC [4] was 0.5 µg/mL (≈ 1.31 µM), the MIC [5] was 1 µg/mL (≈ 2.61 µM) and the MIC [6] was 0.5 µg/mL (≈ 1.31 µM). It also gave an MIC [7] of 0.5 µg/mL (≈ 1.31 µM).

For `COC(=S)NC[C@H]1CN(c2ccc(N3CCN(C)C3=O)c(F)c2)C(=O)O1` [Example 113], the MIC [1] was 32 µg/mL (≈ 83.7 µM), the MIC [2] was 4 µg/mL (≈ 10.5 µM) and the MIC [3] was 4 µg/mL (≈ 10.5 µM). It also gave an MIC [4] of 4 µg/mL (≈ 10.5 µM), an MIC [5] of 8 µg/mL (≈ 20.9 µM) and an MIC [6] of 4 µg/mL (≈ 10.5 µM). For the same compound, the MIC [7] was 2 µg/mL (≈ 5.23 µM).

For `COC(=S)NC[C@H]1CN(c2ccc(N3CCN(Cc4ccccc4)C3=O)cc2)C(=O)O1` [Example 115], the melting point was 160 °C.

Work on `COC(=S)NC[C@H]1CN(c2ccc(N3CCN(Cc4ccccc4)C3=O)c(F)c2)C(=O)O1` [Example 116] yielded a melting point of 174 °C.

`COC(=S)NC[C@H]1CN(c2ccc(N3CCN(c4ccccc4)C3=O)c(F)c2)C(=O)O1` [Example 117] gave a melting point of 195 °C.

`COC(=S)NC[C@H]1CN(c2ccc(N3CC(=O)N(Cc4ccccc4)C3)c(F)c2)C(=O)O1` [Example 123] gave a melting point of 192 °C.

With `COC(=S)NC[C@H]1CN(c2ccc(N3CC(=O)N(CO)C3)c(F)c2)C(=O)O1` [Example 124] the MIC [2] was 0.25 µg/mL (≈ 0.627 µM), the MIC [3] was 0.5 µg/mL (≈ 1.25 µM) and the MIC [4] was 0.25 µg/mL (≈ 0.627 µM). For the same compound, the MIC [5] was 0.5 µg/mL (≈ 1.25 µM), the MIC [6] was 0.5 µg/mL (≈ 1.25 µM) and the MIC [7] was 0.25 µg/mL (≈ 0.627 µM).

With `COC(=S)NC[C@H]1CN(c2ccc(N3CC(=S)N(C)C3)c(F)c2)C(=O)O1` [Example 125] the MIC [2] was 0.25 µg/mL (≈ 0.627 µM), the MIC [3] was 0.5 µg/mL (≈ 1.25 µM) and the MIC [4] was 0.25 µg/mL (≈ 0.627 µM). For the same compound, the MIC [5] was 0.5 µg/mL (≈ 1.25 µM), the MIC [6] was 0.5 µg/mL (≈ 1.25 µM) and the MIC [7] was 0.25 µg/mL (≈ 0.627 µM).

For `COC(=S)NC[C@H]1CN(c2ccc(N3CC(=S)N(C)C3)c(F)c2)C(=O)O1` [Example 126], the melting point was 223 °C.

`COCN1CN(c2ccc(N3C[C@H](CNC(=S)OC)OC3=O)cc2F)CC1=O` [Example 127] showed an MIC [2] of 1 µg/mL (≈ 2.42 µM), an MIC [3] of 1 µg/mL (≈ 2.42 µM) and an MIC [4] of 1 µg/mL (≈ 2.42 µM). The MIC [5] was 1 µg/mL (≈ 2.42 µM), the MIC [6] was 1 µg/mL (≈ 2.42 µM) and the MIC [7] was 0.5 µg/mL (≈ 1.21 µM).

Reference: patent publication US7183301B2, “Heterocyclic compounds having antibacterial activity: process for their preparation and pharmaceutical compositions containing them” (Dr. Reddy's Research Foundation, priority 2000, dated 2007)
